Test results as given in US20230228736A1, “IN VITRO HBV CORE PROTEIN ASSAY” (Janssen Sciences Ireland Unlimited Company, priority 2020, published 2023).
Like-named read-outs stand apart in the source and are kept apart here.

Columns and labels:
[1] = molecular target: T1, HBV core protein (Hepatitis B virus genotype D subtype ayw, UniProt P03146); assay: Cellular HBV core high-content imaging assay (cytosolic and nuclear aggregated core / core speckling); format: cell-based; conditions: HepG2.117 cells; for dose-dependent cytoplasmic and nuclear core speckling phenotype / Cytosolic aggregated core Median max effect at 25 μM (Range) / Nuclear aggregated core Median max effect at 25 μM (Range) / EC50: 72 h; for dose-dependent cytoplasmic and nuclear core speckling phenotype: 11 concentrations, robustness test; for Cytosolic aggregated core Median max effect at 25 μM (Range) / Nuclear aggregated core Median max effect at 25 μM (Range): normalized to 1 μM GLS-4 high control (100% effect); for EC50: median over inter-/intra-assay plate groups
T1 construct: withdrawal of doxycycline from the cell culture medium which results in expression of core and polymerase HBV proteins; expressed in transfected cells; host or cells: HepG2.117 (human hepatoma-derived, stably transfected with the HBV genome, Tet-off)
T1 sequence (P03146 whole entry): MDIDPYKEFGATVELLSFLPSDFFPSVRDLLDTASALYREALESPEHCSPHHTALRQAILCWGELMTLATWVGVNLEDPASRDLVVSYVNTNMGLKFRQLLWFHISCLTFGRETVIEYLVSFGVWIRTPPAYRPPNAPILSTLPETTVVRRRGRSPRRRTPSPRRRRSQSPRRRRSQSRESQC
Method: After trypsinization, HepG2.117 cells were washed once with phosphate buffered saline (PBS). Cells were centrifuged at 1,500 rpm for 5 minutes and divided in two fractions. The fraction that was used for the core-suppressed HepG2.117 cell controls (background control, BC) was resuspended in DMEM supplemented with 2% Tet-system-approved fetal calf serum (FCS; Clontech), 2 mM alanyl-glutamine, lx non-essential amino acids (NEAA; Sigma-Aldrich), and 100 ng/ml doxycycline to suppress core expression. The other fraction was resuspended in DMEM supplemented with 2% Tet-system-approved FCS, 2 mM alanyl-glutamine, and 1×NEAA and used for sample wells, the core-expressing low control wells (LC) and aggregated core-expressing high control wells (HC). 2,000 cells per well were seeded for the assay validation, while 1,500 cells per well were seeded in the cellular screening campaign. Test compound-containing 384-well black poly-D-lysine CellCarrier tissue culture treated plates with an optically clear bottom (Perkin Elmer, Waltham, Mass.) were used. Test compounds were used in dose range in the presence of 1% dimethyl sulfoxide (DMSO). Aggregated core expressing high control wells were treated with 1 μM GLS-4. Compound plates with seeded cells were incubated for 72 h at 37° C. and 5% CO2.
After about 72 hours, cells were fixed with 5% ultra-pure methanol-free formaldehyde (Polysciences, Warrington, Pa.) for 15 minutes and washed three times with PBS. Next, cells were permeabilized for 30 minutes using 0.5% Triton-X-100 (Sigma-Aldrich) dissolved in PBS and washed again three times with PBS. Cells were incubated for 1 hour with PBS containing 5% bovine serum albumin to block Fc receptors. Core protein was detected with primary monoclonal mouse core antibody at a concentration of 666 ng/ml or polyclonal rabbit core antibody at a concentration of 65 μg/ml in PBS containing 5% bovine serum albumin (Sigma-Aldrich). After overnight incubation at 4° C., cells were washed three times with PBS and primary antibody was detected with 2 μg/ml Alexa Fluor-488 goat anti-mouse or goat anti-rabbit secondary antibody. Nuclei and cytoplasm were co-stained using 2 μg/ml Hoechst 33258 (nuclei) and 500 ng/ml HCS CellMask™ Deep Red (entire cells) solution. After 1 hour of incubation at room temperature, cells were washed three times with PBS.
The Opera Phenix™ high-content screening system (Perkin Elmer) was used for automated imaging. A 405-nm laser with 100% power was used with an exposure time of 200 ms to excite Hoechst 33258 (emitting its fluorescent light at 461-nm); emission light was captured using a 435/480 nm emission filter. Simultaneously, HCS CellMask™ Deep Red signal (emitting its fluorescent light at 655-nm) was excited by a 635-nm laser with a 25 ms exposure time and a laser power reduced to 25%; red emitted light was captured using an emission filter of 650/760 nm. Alexa Fluor 488 fluorophores were excited using a 488-nm laser with 100% power and an exposure of 200 ms, whereby the emission filter 500/550 nm was chosen. This detection was performed independently from Hoechst and HCS CellMask™ Deep Red as the fluorescence spectrum of Hoechst overlaps with that of Alexa Fluor-488. A 20× water immersion objective with a numerical aperture of 1.0 was used for imaging of four fields per well.
Images were analyzed with a custom Acapella (Perkin Elmer) script. Nuclei identification was based on the Hoechst 33258 channel, cytoplasm segmentation was based on the HCS CellMask™ Deep Red channel and core protein intensity and texture features were calculated using the Alexa Fluor 488 channel. The cell count feature was used as a measure for cytotoxicity. […] The texture feature “SERSpot” at scale 1.0 was calculated in the nuclear and cytoplasm region of each cell to quantify aggregated core and averaged across all cells on the well-level.

[2] = molecular target: T2, intracellular capsids (HBV core protein) (Hepatitis B virus genotype D subtype ayw, UniProt P03146); assay: Capsid depletion assay: native polyacrylamide gel electrophoresis with immunoblotting for detection of capsids; format: cell-based; conditions: HepG2.117 cells treated for 3 days, native PAGE/western blot
T2 construct: withdrawal of doxycycline from the cell culture medium which results in expression of core and polymerase HBV proteins; expressed in transfected cells; host or cells: HepG2.117 (human hepatoma-derived, stably transfected with the HBV genome, Tet-off)
T2 sequence (P03146 whole entry): as above
Method: HepG2.117 cells cultured in 2% serum containing assay medium as described above were plated in a 12-well plate at a cell density of 500,000 cells/well and incubated at 37° C. and 5% CO2. After overnight incubation, cells were treated with test compound or DMSO for 72 hours at 37° C. and 5% CO2. Afterwards, cells were washed once with PBS and lysed with 300 μl 10 mM Tris-HCl (pH 7.6), 100 mM NaCl, 1 mM ethylenediaminetetraacetic acid (EDTA), and 0.1% NP-40 supplemented with 1× Halt™ Protease Inhibitor Cocktail (Thermo Fisher Scientific, Waltham, Mass.). After lysis of the cells at 37° C. for 10 minutes, cell debris was discarded by centrifugation at 5,000×g for 10 minutes. Supernatant was collected and protein concentration was determined using the DC (detergent compatible) protein assay (Bio-Rad, Hercules, Calif.). Of protein/sample, 2.2 μg was loaded on a NativePAGE™ Novex® 3-12% Bis-Tris Gel (Invitrogen, Waltham, Mass.) with electrophoresis performed at room temperature using NativePAGE™ Running Buffer and NativePAGE™ Cathode Additive. Proteins were transferred using the Novex® iBlot® Transfer Stack, PVDF, regular size kit followed by a standard immunoblotting procedure using primary polyclonal rabbit core antibody at a concentration of 16.25 μg/ml with overnight incubation. […]

Row | Compound | dose-dependent cytoplasmic and nuclear core speckling phenotype [1] | Cytosolic aggregated core Median max effect at 25 μM (Range) [1] | Nuclear aggregated core Median max effect at 25 μM (Range) [1] | EC50 ([1]; read-out: Cytosolic aggregated core Median EC50 (μM) (Range)) | EC50 ([1]; read-out: Nuclear aggregated core Median EC50 (μM) (Range)) | phenotypic core immunostaining pattern ([1]; core expressing (-DOX), FIG. 2A/2B) | depletion of intracellular capsids [2]
1 | COC(=O)C1=C(CN2CCOCC2)NC(c2ccccn2)=NC1c1ccc(F)cc1Cl (stereo not shown) [Compound 5] | dose-dependent cytoplasmic and nuclear core speckling phenotype was observed | 72.1 | 86.2 | 0.078 µM | 0.085 µM |  | 
2 | COC(=O)C1=C(C)NC(c2ncc(F)cc2F)=N[C@H]1c1ccc(F)cc1Cl [Compound 14] | dose-dependent cytoplasmic and nuclear core speckling phenotype was observed | 68.1 | 139.2 |  |  | aggregated dot-like pattern of core proteins | dose-dependent depletion of intracellular capsids
